The target of assay [1] is T1, Human β2 adrenoceptor (Homo sapiens, UniProt P07550).
T1 construct: purchased Perkin Elmer
The assay can be described thus: β2 adrenoceptor radioligand binding assay. In outline:
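Human β2 receptor membranes incubated 1 h at room temperature with 0.3 nM [125I]cyanopindolol and compound in pH 7.4 HEPES buffer (0.5% DMSO); 2 μM s-propranolol defined non-specific binding. Bound label counted after filtration; IC50 from competition curves, converted to Ki via Cheng–Prusoff.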

The target of assay [2] is T2, Human M3 receptor (Homo sapiens, UniProt P20309).
T2 construct: purchased Perkin Elmer
T2 sequence (P20309 whole entry): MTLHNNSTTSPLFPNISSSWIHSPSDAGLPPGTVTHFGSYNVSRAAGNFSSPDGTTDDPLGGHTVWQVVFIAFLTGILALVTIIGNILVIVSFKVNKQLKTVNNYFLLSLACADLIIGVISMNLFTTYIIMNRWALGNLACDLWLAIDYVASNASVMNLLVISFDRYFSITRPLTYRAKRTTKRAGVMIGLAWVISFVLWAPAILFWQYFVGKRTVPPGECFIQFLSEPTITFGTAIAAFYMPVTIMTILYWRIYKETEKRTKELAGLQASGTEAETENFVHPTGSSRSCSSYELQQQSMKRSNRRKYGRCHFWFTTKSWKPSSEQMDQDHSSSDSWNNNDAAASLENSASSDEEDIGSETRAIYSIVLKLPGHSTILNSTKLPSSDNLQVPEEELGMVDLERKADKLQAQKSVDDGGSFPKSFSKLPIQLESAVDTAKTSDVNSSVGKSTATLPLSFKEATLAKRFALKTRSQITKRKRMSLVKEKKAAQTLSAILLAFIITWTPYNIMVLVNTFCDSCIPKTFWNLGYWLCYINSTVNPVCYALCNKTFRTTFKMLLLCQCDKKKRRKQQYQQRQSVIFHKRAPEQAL
Description: biochemical. The note with it: read-out: M3 Range. It counts as binding.

Some results are limits rather than exact numbers.

This is an account of results in patent publication US10196386B2, “Compounds having muscarinic receptor antagonist and beta2 adrenergic receptor agonist activity” (priority 2016, dated 2019).

T1 sequence (P07550 whole entry): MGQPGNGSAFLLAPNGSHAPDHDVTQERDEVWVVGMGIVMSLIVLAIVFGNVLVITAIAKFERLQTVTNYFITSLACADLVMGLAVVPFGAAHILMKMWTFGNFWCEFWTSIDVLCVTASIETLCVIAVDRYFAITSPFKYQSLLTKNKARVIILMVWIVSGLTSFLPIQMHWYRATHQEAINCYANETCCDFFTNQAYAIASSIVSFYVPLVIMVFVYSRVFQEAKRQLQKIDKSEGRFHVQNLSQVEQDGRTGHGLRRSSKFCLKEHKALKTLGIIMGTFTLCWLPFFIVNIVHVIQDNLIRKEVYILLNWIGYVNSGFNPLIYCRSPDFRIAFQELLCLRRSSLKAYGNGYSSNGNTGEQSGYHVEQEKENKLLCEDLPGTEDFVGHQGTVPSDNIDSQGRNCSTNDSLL

For `O=C(c1ccc(-c2cccc([C@](O)(C(=O)OCC3CCN(Cc4ccccc4)CC3)c3ccccc3)c2)cn1)N1CCC(CNC[C@H](O)c2ccc(O)c3[nH]c(=O)ccc23)CC1` [Compound 6C, (1-Benzylpiperidin-4-yl)methyl (S)-2-hydroxy-2-(3-(6-(4-((((R)-2-hydroxy-2-(8-hydroxy-2-oxo-1,2-dihydroquinolin-5-yl)ethyl)amino)methyl)piperidine-1-carbonyl)pyridin-3-yl)phenyl)-2-phenylacetate], the IC50 in assay [1] and in assay [2] was < 0.3 nM throughout.

On to `COc1cc(C(=O)NCc2ncc(-c3cccc([C@](O)(C(=O)OCC4CCN(Cc5ccccc5)CC4)c4ccccc4)c3)cn2)ccc1CNC[C@H](O)c1ccc(O)c2[nH]c(=O)ccc12` [Compound 4E, (1-Benzylpiperidin-4-yl)methyl (S)-2-hydroxy-2-(3-(2-((4-((((R)-2-hydroxy-2-(8-hydroxy-2-oxo-1,2-dihydroquinolin-5-yl)ethyl)amino)methyl)-3-methoxybenzamido)methyl)pyrimidin-5-yl)phenyl)-2-phenylacetate], for which the IC50 in assay [1] and in assay [2] was 0.3 to 3 nM throughout.

For the molecule `O=C(NCc1ccc(-c2cccc([C@](O)(C(=O)OCC3CCN(Cc4ccccc4)CC3)c3ccccc3)c2)s1)c1ccc(CNC[C@H](O)c2ccc(O)c3[nH]c(=O)ccc23)cc1Cl` [Compound 1, (1-Benzylpiperidin-4-yl)methyl (S)-2-(3-(5-((2-chloro-4-((((R)-2-hydroxy-2-(8-hydroxy-2-oxo-1,2-dihydroquinolin-5-yl)ethyl)amino)methyl)benzamido-)methyl)thiophen-2-yl)phenyl)-2-hydroxy-2-phenylacetate], the IC50 is < 0.3 nM in assay [1] and 0.3 to 3 nM in assay [2].

Turning to `COc1cc(C(=O)NCc2ccc(-c3cccc([C@](O)(C(=O)OCC4CCN(Cc5ccccc5)CC4)c4ccccc4)c3)s2)c(Cl)cc1CNC[C@H](O)c1ccc(O)c2[nH]c(=O)ccc12` [Compound 1D, (1-Benzylpiperidin-4-yl)methyl (S)-2-(3-(5-((2-chloro-4-((((R)-2-hydroxy-2-(8-hydroxy-2-oxo-1,2-dihydroquinolin-5-yl)ethyl)amino)methyl)-5-methoxybenzamido)methyl)thiophen-2-yl)phenyl)-2-hydroxy-2-phenylacetate], the IC50 was < 0.3 nM in assay [1] and 0.3 to 3 nM in assay [2].

Regarding `COc1cccc(CN2CCC(COC(=O)[C@](O)(c3ccccc3)c3cccc(-c4ccc(CNC(=O)c5ccc(CNC[C@H](O)c6ccc(O)c7[nH]c(=O)ccc67)cc5)s4)c3)CC2)c1` [Compound 2E, (1-(3-Methoxybenzyl)piperidin-4-yl)methyl (S)-2-hydroxy-2-(3-(5-((4-((((R)-2-hydroxy-2-(8-hydroxy-2-oxo-1,2-dihydroquinolin-5-yl)ethyl)amino)-methyl)benzamido)methyl)thiophen-2-yl)phenyl)-2-phenylacetate], the IC50 in assay [1] is 0.3 to 3 nM; in assay [2], > 3 nM.

On to `COc1c(CNC[C@H](O)c2ccc(O)c3[nH]c(=O)ccc23)ccc(C(=O)N2CC=C(c3cccc([C@](O)(C(=O)OCC4CCN(Cc5ccccc5)CC4)c4ccccc4)c3)CC2)c1F` [Compound 3D, (1-Benzylpiperidin-4-yl)methyl (S)-2-(3-(1-(2-fluoro-4-((((R)-2-hydroxy-2-(8-hydroxy-2-oxo-1,2-dihydroquinolin-5-yl)ethyl)amino)methyl)-3-methoxybenzoyl)-1,2,3,6-tetrahydropyridin-4-yl)phenyl)-2-hydroxy-2-phenylacetate], for which the IC50 in assay [1] and in assay [2] was 0.3 to 3 nM throughout.

`O=C(NCc1ccc(-c2cccc([C@](O)(C(=O)OCC3CCN(Cc4ccccc4)CC3)c3ccccc3)c2)s1)c1ccc(CNC[C@H](O)c2ccc(O)c3[nH]c(=O)ccc23)c(F)c1F` [Compound 1V, (1-Benzylpiperidin-4-yl)methyl (S)-2-(3-(5-((2,3-difluoro-4-((((R)-2-hydroxy-2-(8-hydroxy-2-oxo-1,2-dihydroquinolin-5-yl)ethyl)amino)methyl)-benzamido)methyl)thiophen-2-yl)phenyl)-2-hydroxy-2-phenylacetate]: the IC50 was < 0.3 nM in assay [1] and 0.3 to 3 nM in assay [2].
